Assay results published in PubChem BioAssay AID248 (DTP/NCI, 2004).
Where “and” joins values, the source holds several entries; their conditions need not be identical. Identical values can stand only once. Toxic doses and inconclusive results are not listed. No stated cut-off is given here; in the data, active means T/C of 150% or more; inactive means T/C below 125%.

Tested on: L1210 leukemia ip in BDF1 mice, survival T/C
Test: NCI In Vivo Anticancer Drug Screen. Data for tumor model L1210 Leukemia (intraperitoneal) in B6D2F1 (BDF1) mice
Details: endpoint: mean survival time, higher = longer survival
Summary of the method: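 Survival endpoint. Drug-treated group vs vehicle group, expressed as T divided by C. Tumor passaged by transplantation.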

[1] = dose: 50.0 mg/kg/injection, schedule: Q01DX001 (ip), vehicle: other
[2] = dose: 200.0 mg/kg/injection, schedule: Q01DX001 (ip), vehicle: other
[3] = dose: 400.0 mg/kg/injection, schedule: Q01DX001 (ip), vehicle: other
[4] = dose: 50.0 mg/kg/injection, schedule: Q01DX001 (ip), vehicle: saline
[5] = dose: 100.0 mg/kg/injection, schedule: Q04DX003 (ip), vehicle: saline with Tween-80
[6] = dose: 200.0 mg/kg/injection, schedule: Q04DX003 (ip), vehicle: saline with Tween-80
[7] = dose: 400.0 mg/kg/injection, schedule: Q04DX003 (ip), vehicle: saline with Tween-80
[8] = dose: 100.0 mg/kg/injection, schedule: Q01DX001 (ip), vehicle: saline
[9] = dose: 200.0 mg/kg/injection, schedule: Q01DX001 (ip), vehicle: saline
[10] = dose: 400.0 mg/kg/injection, schedule: Q01DX001 (ip), vehicle: saline
[11] = dose: 100.0 mg/kg/injection, schedule: Q01DX009 (ip), vehicle: saline with Tween-80
[12] = dose: 200.0 mg/kg/injection, schedule: Q01DX009 (ip), vehicle: saline with Tween-80
[13] = dose: 400.0 mg/kg/injection, schedule: Q01DX009 (ip), vehicle: saline with Tween-80
[14] = dose: 100.0 mg/kg/injection, schedule: Q01DX009 (ip), vehicle: Klucel (hydroxypropylcellulose) (HPC)
[15] = dose: 200.0 mg/kg/injection, schedule: Q01DX009 (ip), vehicle: Klucel (hydroxypropylcellulose) (HPC)

Measured: T/C

Cc1cc(C)cc(OC(=S)N(C)C)c1
inactive: dose: 100.0 mg/kg/injection, schedule: Q01DX001 (ip), vehicle: Klucel (hydroxypropylcellulose) (HPC) 93 % of control | dose: 200.0 mg/kg/injection, schedule: Q01DX001 (ip), vehicle: Klucel (hydroxypropylcellulose) (HPC) 98 % of control | dose: 400.0 mg/kg/injection, schedule: Q01DX001 (ip), vehicle: Klucel (hydroxypropylcellulose) (HPC) 95 % of control

CCCCCCCCCCCCCCCc1cc(O)cc(O)c1
inactive: [1] 88 % of control | [2] 95 % of control | [3] 93 % of control

CCOC(=O)c1ccc(N(CC(S)CNc2cc(C)nc(N)n2)S(=O)(=O)c2ccc(C)cc2)cc1 (stereo unspecified)
inactive: dose: 25.0 mg/kg/injection, schedule: Q01DX001 (ip), vehicle: saline 95 % of control | [4] 90 % of control

COC(=O)/C=C/c1ccc([N+](=O)[O-])cc1
inactive: [5] 94 % of control and 96 % of control | [6] 96 % of control and 97 % of control | [7] 92 % of control

CCOC(=O)NNC(=O)c1ccccc1
inactive: dose: 12.5 mg/kg/injection, schedule: Q01DX009 (ip), vehicle: alcohol 100 % of control | dose: 25.0 mg/kg/injection, schedule: Q01DX009 (ip), vehicle: alcohol 90 % of control | dose: 25.0 mg/kg/injection, schedule: Q04DX003 (ip), vehicle: alcohol 103 % of control | dose: 50.0 mg/kg/injection, schedule: Q01DX009 (ip), vehicle: alcohol 89 % of control | dose: 50.0 mg/kg/injection, schedule: Q04DX003 (ip), vehicle: alcohol 101 % of control

COc1cccc(C(=O)O)c1[N+](=O)[O-]
inactive: [1] 103 % of control | dose: 100.0 mg/kg/injection, schedule: Q01DX001 (ip), vehicle: other 97 % of control | dose: 100.0 mg/kg/injection, schedule: Q04DX002 (ip), vehicle: Klucel (hydroxypropylcellulose) (HPC) 106 % of control | [2] 115 % of control | dose: 200.0 mg/kg/injection, schedule: Q04DX002 (ip), vehicle: Klucel (hydroxypropylcellulose) (HPC) 95 % of control | [3] 97 % of control | dose: 400.0 mg/kg/injection, schedule: Q04DX002 (ip), vehicle: Klucel (hydroxypropylcellulose) (HPC) 88 % of control

CNc1nc(N)nc2c1nc(Cl)n2C1OC(CO)C(O)C1O (stereo unspecified)
inactive: [8] 100 % of control | [9] 92 % of control | [10] 96 % of control

O=S(=O)(Nc1ccc(O)c(Cl)c1)c1ccccc1
inactive: [11] 100 % of control | [12] 103 % of control | [13] 95 % of control

CC[N+]12CC=C(CO)C1C(O)CC2 (stereo unspecified)
inactive: dose: 50.0 mg/kg/injection, schedule: Q01DX009 (ip), vehicle: Klucel (hydroxypropylcellulose) (HPC) 100 % of control | [14] 95 % of control | [15] 95 % of control

CCC1(C(C)=O)CN2CCc3cc(OC)c(OC)cc3C2N2CCc3ccc(OC)c(OC)c3C21 (stereo unspecified)
inactive: dose: 100.0 mg/kg/injection, schedule: Q04DX003 (ip), vehicle: carboxymethylcellulose (CMC) 95 % of control | dose: 200.0 mg/kg/injection, schedule: Q04DX003 (ip), vehicle: carboxymethylcellulose (CMC) 98 % of control | dose: 400.0 mg/kg/injection, schedule: Q04DX003 (ip), vehicle: carboxymethylcellulose (CMC) 95 % of control

CCCCN(CCCC)C(=O)CC(C)(O)c1ccccc1 (stereo unspecified)
inactive: [4] 96 % of control | [8] 107 % of control | [9] 94 % of control | [10] 96 % of control

Nc1ccccc1S(=O)(=O)Nc1ccccc1
inactive: [14] 98 % of control | dose: 100.0 mg/kg/injection, schedule: Q04DX003 (ip), vehicle: Klucel (hydroxypropylcellulose) (HPC) 92 % of control | [15] 95 % of control | dose: 200.0 mg/kg/injection, schedule: Q04DX003 (ip), vehicle: Klucel (hydroxypropylcellulose) (HPC) 97 % of control | dose: 400.0 mg/kg/injection, schedule: Q01DX009 (ip), vehicle: Klucel (hydroxypropylcellulose) (HPC) 87 % of control | dose: 400.0 mg/kg/injection, schedule: Q04DX003 (ip), vehicle: Klucel (hydroxypropylcellulose) (HPC) 100 % of control

CN(C)P1(=S)NCCCO1 (stereo unspecified)
inactive: dose: 87.5 mg/kg/injection, schedule: Q01DX009 (ip), vehicle: other 97 % of control | dose: 175.0 mg/kg/injection, schedule: Q01DX009 (ip), vehicle: other 100 % of control | dose: 350.0 mg/kg/injection, schedule: Q01DX009 (ip), vehicle: other 100 % of control

O=C(N/N=C\c1ccc([N+](=O)[O-])cc1)c1ccncc1
inactive: [11] 94 % of control | [12] 94 % of control | [13] 98 % of control

CC(C)N(/N=N/c1[nH]ncc1C(N)=O)C(C)C
inactive: dose: 100.0 mg/kg/injection, schedule: Q01DX001 (ip), vehicle: saline with Tween-80 104 % of control | [11] 108 % of control | dose: 200.0 mg/kg/injection, schedule: Q01DX001 (ip), vehicle: saline with Tween-80 104 % of control | [12] 98 % of control | dose: 400.0 mg/kg/injection, schedule: Q01DX001 (ip), vehicle: saline with Tween-80 93 % of control | [13] 95 % of control

CCOC(=O)CCC1(C(=O)OC)C(=O)CCCCC/C=C/1C(=O)OC (stereo unspecified)
inactive: [5] 99 % of control | [6] 101 % of control | [7] 106 % of control

O=C(O)C1(c2ccc(-c3ccccc3)cc2)CCCCC1
inactive: [5] 96 % of control | [6] 96 % of control | [7] 100 % of control

O=C(O)c1cc([N+](=O)[O-])ccc1Oc1cccc([N+](=O)[O-])c1
inactive: dose: 222.0 mg/kg/injection, schedule: Q01DX Z (ip), vehicle: methylcellulose (MC) 93 % of control | dose: 333.0 mg/kg/injection, schedule: Q01DX Z (ip), vehicle: methylcellulose (MC) 90 % of control | dose: 500.0 mg/kg/injection, schedule: Q01DX Z (ip), vehicle: methylcellulose (MC) 93 % of control

CCOc1ccc(/C=N/NC(=O)CC2CCCCC2)cc1OC
inactive: [11] 90 % of control | [12] 88 % of control | [13] 90 % of control

Nc1c(Cl)cc([N+](=O)[O-])cc1Cl
inactive: dose: 50.0 mg/kg/injection, schedule: Q01DX001 (ip), vehicle: carboxymethylcellulose (CMC) 95 % of control | dose: 100.0 mg/kg/injection, schedule: Q01DX001 (ip), vehicle: carboxymethylcellulose (CMC) 92 % of control | [11] 103 % of control | [5] 97 % of control | dose: 200.0 mg/kg/injection, schedule: Q01DX001 (ip), vehicle: carboxymethylcellulose (CMC) 106 % of control | [12] 92 % of control | [6] 93 % of control | dose: 400.0 mg/kg/injection, schedule: Q01DX001 (ip), vehicle: carboxymethylcellulose (CMC) 95 % of control | [13] 95 % of control | [7] 93 % of control

O=c1ccn(C2CCCO2)c(=O)[nH]1 (stereo unspecified)
inactive: [4] 105 % of control | [8] 109 % of control | [9] 100 % of control | [10] 103 % of control

Cn1c(=O)c2c(ncn2CCCCO)n(C)c1=O
inactive: dose: 100.0 mg/kg/injection, schedule: Q01DX009 (ip), vehicle: saline 94 % of control | dose: 200.0 mg/kg/injection, schedule: Q01DX009 (ip), vehicle: saline 95 % of control | dose: 400.0 mg/kg/injection, schedule: Q01DX009 (ip), vehicle: saline 92 % of control

CCOC(=O)CNC(=O)Nc1ccc(NC(C)=O)cc1
inactive: [11] 94 % of control | [12] 94 % of control | [13] 88 % of control

Cn1ccc2cc(Br)ccc21
inactive: [5] 102 % of control | [6] 101 % of control | [7] 101 % of control

CC(=O)NC(C)C(C)C (stereo unspecified)
inactive: dose: 100.0 mg/kg/injection, schedule: Q04DX003 (ip), vehicle: saline 94 % of control | dose: 200.0 mg/kg/injection, schedule: Q04DX003 (ip), vehicle: saline 107 % of control | dose: 400.0 mg/kg/injection, schedule: Q04DX003 (ip), vehicle: saline 104 % of control

CCCCOC(=O)C1OC1c1ccccc1 (stereo unspecified)
inactive: [11] 88 % of control | dose: 100.0 mg/kg/injection, schedule: Q04DX002 (ip), vehicle: saline with Tween-80 90 % of control | [12] 95 % of control | dose: 200.0 mg/kg/injection, schedule: Q04DX002 (ip), vehicle: saline with Tween-80 88 % of control | [13] 95 % of control | dose: 400.0 mg/kg/injection, schedule: Q04DX002 (ip), vehicle: saline with Tween-80 102 % of control
